Holding throughout (test): ≥ marks a high value that may be exact or a test limit, other limits are often not marked, values filed in µg/mL are converted to µM
The test system of experiment [1] is Pseudomonas syringae pv. syringae EPS 94.
The test system of experiment [2] is Erwinia amylovora PMV 6076.
For experiment [3], the system named is Listeria monocytogenes LO28.
Experiment [4] concerns Cronobacter sakazakii DPC 6440.
For experiment [5], the system named is Escherichia coli ATCC 25922.
The test system of experiment [6] is Bacillus subtilis CMCC 63501.
Experiment [7] deals with Salmonella enterica subsp. enterica serovar Pullorum C79-13.
Experiment [8] relates to Salmonella enterica subsp. enterica serovar Typhimurium C77-31.
Experiment [9] has as its system Staphylococcus aureus ATCC 29213.
The subject of experiment [10] is Pseudomonas aeruginosa ATCC 27853.
Experiment [11] relates to Staphylococcus epidermidis ATCC 12228.
The subject of experiment [12] is Enterococcus faecalis ATCC 29212.
The test system of experiment [13] is Acinetobacter baumannii ATCC 19606.
The subject of experiment [14] is Candida albicans ATCC 90028.
The subject of experiment [15] is Cryptococcus neoformans ATCC 208821.
For experiment [16], the system named is Staphylococcus aureus ATCC 43300.
Experiment [17] has as its system Klebsiella pneumoniae ATCC 700603.
The subject of experiment [18] is Staphylococcus aureus ATCC BAA-1556.
For a further experiment, the system named is Aeromonas hydrophila.
Another experiment relates to Vibrio harveyi.

Converted amounts (≈) assume the structure as drawn. Where only a bound is given, the exact number is not on record here.

One may read the MIC as the least concentration at which growth counts as inhibited. A low value points to inhibition by little substance. Regarding `CC[C@H](C)[C@H](NC(=O)[C@H](CCCCN)NC(=O)[C@H](CCCCN)NC(=O)[C@H](Cc1ccccc1)NC(=O)[C@H](CC(C)C)NC(=O)[C@H](CCCCN)NC(=O)[C@H](CCCCN)NC(=O)CN)C(=O)N[C@@H](CC(C)C)C(=O)N[C@@H](CCCCN)C(=O)N[C@@H](Cc1ccc(O)cc1)C(=O)N[C@@H](CC(C)C)C(=O)N[C@@H](C)C(=O)NCC(=O)N1CCC[C@H]1C(=O)N[C@@H](C)C(=O)N[C@@H](CCCCN)C(=O)N[C@@H](Cc1ccccc1)C(=O)N[C@@H](CC(C)C)C(=O)N[C@@H](Cc1cnc[nH]1)C(=O)N[C@@H](CO)C(=O)N[C@@H](C)C(=O)N[C@@H](CCCCN)C(=O)O` [GKKLFKKILKYLAGPAKFLHSAK], the MIC was 3.54 µM (≈ 9.15 µg/mL) in experiment [1] and 1.77 µM (≈ 4.57 µg/mL) in [2].

On to `CC[C@H](C)[C@H](NC(=O)[C@@H](N)Cc1c[nH]c2ccccc12)C(=O)N[C@@H](CCC(N)=O)C(=O)N1CCC[C@H]1C(=O)N[C@@H](CCCCN)C(=O)N[C@H](C(=O)N[C@@H](C)C(=O)N[C@H](C(=O)N[C@H](C(=O)N1CCC[C@H]1C(=O)N[C@@H](Cc1ccc(O)cc1)C(=O)N[C@H](C(=O)N[C@@H](CCCN=C(N)N)C(=O)N[C@@H](Cc1ccc(O)cc1)C(=O)N[C@@H](CC(C)C)C(=O)O)C(C)C)[C@@H](C)CC)C(C)C)[C@@H](C)O` [WIQPKTAVIPYVRYL], for which the values for the MIC in experiment [3] and in experiment [4] were ≥ 39.1 µM and ≥ 312 µM, respectively.

For `CC[C@H](C)[C@H](NC(=O)[C@@H](NC(=O)[C@H](CCCCN)NC(=O)[C@@H](N)[C@@H](C)O)C(C)C)C(=O)N1CCC[C@H]1C(=O)N[C@@H](Cc1ccc(O)cc1)C(=O)N[C@H](C(=O)N[C@@H](CCCN=C(N)N)C(=O)N[C@@H](Cc1ccc(O)cc1)C(=O)N[C@@H](CC(C)C)C(=O)O)C(C)C` [TKVIPYVRYL], the MIC is ≥ 78.1 µM in experiment [3] and ≥ 156 µM in experiment [4].

Take `NC(=O)[C@H](Cc1ccccc1)NC(=O)[C@H](CCCN=C(N)N)NC(=O)[C@H](Cc1ccccc1)NC(=O)[C@H](CCCN=C(N)N)NC(=O)[C@H](CS)NC(=O)[C@H](Cc1ccccc1)NC(=O)[C@H](CCCN=C(N)N)NC(=O)[C@H](CCCN=C(N)N)NC(=O)[C@H](CCCN=C(N)N)NC(=O)[C@H](CS)NC(=O)[C@H](CCCN=C(N)N)NC(=O)[C@H](Cc1ccccc1)NC(=O)[C@H](CCCN=C(N)N)NC(=O)[C@@H](N)Cc1ccccc1` [FRFRCRRRFCRFRF]: the MIC in [5] stood at 1 µM (≈ 2.05 µg/mL); in [6] it was 2 µM (≈ 4.11 µg/mL); in experiment [7] it was 1 µM (≈ 2.05 µg/mL); in [8], 2 µM (≈ 4.11 µg/mL); in experiment [9], 2 µM (≈ 4.11 µg/mL); in [10] it was 4 µM (≈ 8.21 µg/mL). For the same compound, the values for the minimum inhibitory concentration (MIC) in experiment [11] and in [12] were 2 µM (≈ 4.11 µg/mL) and 4 µM (≈ 8.21 µg/mL), respectively.

Consider `CC[C@H](C)[C@H](NC(=O)[C@@H](N)Cc1c[nH]c2ccccc12)C(=O)N[C@@H](CCC(N)=O)C(=O)N1CCC[C@H]1C(=O)N[C@@H](C)C(=O)N[C@H](C(=O)N[C@@H](C)C(=O)N[C@H](C(=O)N[C@H](C(=O)N1CCC[C@H]1C(=O)N[C@@H](Cc1ccc(O)cc1)C(=O)N[C@H](C(=O)N[C@@H](CCCN=C(N)N)C(=O)N[C@@H](Cc1ccc(O)cc1)C(=O)N[C@@H](CC(C)C)C(=O)O)C(C)C)[C@@H](C)CC)C(C)C)[C@@H](C)O` [WIQPATAVIPYVRYL], for which the MIC in [3] was ≥ 156 µM; in [4], ≥ 625 µM.

In the case of `CC(C)C[C@H](NC(=O)CNC(=O)[C@H](CO)NC(=O)CNC(=O)[C@H](CCCN=C(N)N)NC(=O)[C@H](CCCN=C(N)N)NC(=O)CN)C(=O)NCC(=O)N[C@@H](CCCN=C(N)N)C(=O)N[C@@H](CO)C(=O)N[C@@H](CO)C(=O)N[C@@H](CO)C(=O)N[C@@H](CCCN=C(N)N)C(=O)NCC(=O)N[C@@H](CCC(N)=O)C(=O)N[C@@H](CCCN=C(N)N)C(=O)NCC(=O)N[C@@H](CO)C(=O)NCC(=O)N[C@@H](CO)C(=O)NCC(=O)N[C@@H](CCCN=C(N)N)C(=O)O` [GRRGSGLGRSSSRGQRGSGSGR], the MIC was > 14.7 µM in [13]; 14.7 µM (≈ 32 µg/mL) in experiment [14]; > 14.7 µM in experiment [5]; 14.7 µM (≈ 32 µg/mL) in experiment [15]; > 14.7 µM in experiment [16]; > 14.7 µM in [17]. In addition, in experiment [10], the MIC is > 14.7 µM.

`CC[C@H](C)[C@H](NC(=O)[C@@H](N)Cc1c[nH]c2ccccc12)C(=O)N[C@@H](CCCN=C(N)N)C(=O)N[C@@H](Cc1c[nH]c2ccccc12)C(=O)N[C@@H](CC(C)C)C(N)=O` [WIRWL]: in [18], the MIC was ≥ 100 µM.

Regarding `CC(C)C[C@H](NC(=O)[C@H](CC(C)C)NC(=O)[C@H](Cc1c[nH]c2ccccc12)NC(=O)[C@H](CCCCN)NC(=O)[C@H](CC(C)C)NC(=O)[C@H](CC(C)C)NC(=O)[C@H](CCCCN)NC(=O)[C@@H](N)CCCCN)C(N)=O` [KKLLKWLL], the MIC in [18] was ≥ 100 µM.

Take `CC[C@H](C)[C@H](NC(=O)[C@@H](N)Cc1c[nH]c2ccccc12)C(=O)N[C@@H](CCC(N)=O)C(=O)N1CCC[C@H]1C(=O)N[C@@H](CCCCN)C(=O)N[C@H](C(=O)N[C@@H](CCCCN)C(=O)N[C@H](C(=O)N[C@H](C(=O)N1CCC[C@H]1C(=O)N[C@@H](Cc1ccc(O)cc1)C(=O)N[C@H](C(=O)N[C@@H](CCCN=C(N)N)C(=O)N[C@@H](C)C(=O)N[C@@H](CC(C)C)C(=O)O)C(C)C)[C@@H](C)CC)C(C)C)[C@@H](C)O` [WIQPKTKVIPYVRAL]: the MIC in [3] was 19.5 µM (≈ 35.4 µg/mL); in experiment [4], ≥ 78.1 µM.

Turning to `C[C@H](NC(=O)[C@@H](NC(=O)[C@H](CCCN=C(N)N)NC(=O)[C@H](CO)NC(=O)CNC(=O)[C@H](CCCN=C(N)N)NC(=O)[C@H](CCC(N)=O)NC(=O)[C@@H](NC(=O)[C@H](CO)NC(=O)[C@H](CCC(N)=O)NC(=O)CNC(=O)[C@H](Cc1cnc[nH]1)NC(=O)CNC(=O)[C@H](CO)NC(=O)[C@H](Cc1cnc[nH]1)NC(=O)[C@H](C)NC(=O)[C@@H](N)Cc1cnc[nH]1)[C@@H](C)O)[C@@H](C)O)C(=O)NCC(=O)N[C@@H](CCCN=C(N)N)C(=O)O` [HAHSGHGQSTQRGSRTAGR], the MIC in experiment [13] was > 16.1 µM; in [14], 16.1 µM (≈ 32 µg/mL); in experiment [5], > 16.1 µM; in experiment [15] it was 16.1 µM (≈ 32 µg/mL); in [16], > 16.1 µM; in [17], > 16.1 µM. Further, in experiment [10], the MIC is > 16.1 µM.

In the case of `CC(C)C[C@H](NC(=O)[C@H](Cc1c[nH]c2ccccc12)NC(=O)[C@H](Cc1c[nH]c2ccccc12)NC(=O)[C@H](CC(C)C)NC(=O)[C@H](Cc1c[nH]c2ccccc12)NC(=O)[C@H](Cc1c[nH]c2ccccc12)NC(=O)[C@H](CC(C)C)NC(=O)[C@H](CCCN=C(N)N)NC(=O)[C@@H](N)Cc1c[nH]c2ccccc12)C(N)=O` [WRLWWLWWL], the MIC in experiment [18] came out at 6.25 µM (≈ 9.02 µg/mL).

`CC[C@H](C)[C@H](NC(=O)[C@H](Cc1c[nH]c2ccccc12)NC(=O)[C@H](CCCN=C(N)N)NC(=O)[C@H](CCCN=C(N)N)NC(=O)[C@@H](N)Cc1c[nH]c2ccccc12)C(=O)N[C@@H](CCCN=C(N)N)C(=O)N[C@@H](Cc1c[nH]c2ccccc12)C(=O)N[C@@H](CC(C)C)C(N)=O` [WRRWIRWL] yielded an MIC in experiment [18] of 25 µM (≈ 31.8 µg/mL).

With `CC[C@H](C)[C@H](NC(=O)[C@H](C)NC(=O)[C@H](CCCN=C(N)N)NC(=O)[C@H](Cc1cnc[nH]1)NC(=O)[C@@H](NC(=O)[C@H](C)NC(=O)[C@H](CCCN=C(N)N)NC(=O)[C@@H](NC(=O)CNC(=O)[C@H](Cc1cnc[nH]1)NC(=O)[C@H](CO)NC(=O)[C@@H](NC(=O)[C@H](Cc1c[nH]c2ccccc12)NC(=O)CNC(=O)[C@@H](NC(=O)[C@@H](NC(=O)[C@H](Cc1cnc[nH]1)NC(=O)[C@H](Cc1cnc[nH]1)NC(=O)[C@@H](NC(=O)[C@@H](N)Cc1ccccc1)[C@@H](C)CC)[C@@H](C)CC)[C@@H](C)CC)[C@@H](C)CC)C(C)C)[C@@H](C)CC)C(=O)N[C@@H](C)C(N)=O` [FIHHIIGWISHGVRAIHRAIA], the minimal inhibitory concentration (MIC) with Aeromonas hydrophila and against Vibrio harveyi was 16 µM (≈ 38.5 µg/mL) each time.
